These are literature values, as cited in patent US20030008923A1, “Antineoplastic combinations” (Wyeth, priority 2001, published 2003).

Data set [1] concerns histologically diverse tumor cells.
Data set [2] deals with human glioblastoma cell line. The following applies: human glioblastoma cell line in vitro.
The next data set concerns the target mTOR (Homo sapiens, UniProt P42345+P62942). The following applies: growth factor stimulated cells, Western blot. For orientation: A western blot detects proteins with antibodies after separation by electrophoresis.

The structures appear in SMILES notation.

As to `CO[C@H]1C[C@@H]2CC[C@@H](C)[C@@](O)(O2)C(=O)C(=O)N2CCCC[C@H]2C(=O)O[C@H]([C@H](C)C[C@@H]2CC[C@@H](OC(=O)C(C)(CO)CO)[C@H](OC)C2)CC(=O)[C@H](C)/C=C(\C)[C@@H](O)[C@@H](OC)C(=O)[C@H](C)C[C@H](C)/C=C/C=C/C=C/1C` [CCI-779, Rapamycin 42-ester with 3-hydroxy-2-(hydroxymethyl)-2-methylpropionic acid], in data set [1] (histologically diverse tumor cells), the “growth of tumor cells in vitro” value is recorded as “inhibit the growth”. Besides, in data set [1] (in vitro), the cell cycle effect result is “arrested cells in the G1 phase”. Moreover, in the data set on human tumor xenografts (nude mice), the “activity against human tumor xenografts of diverse histological types” value is reported as “has activity” and the “growth of several human pancreatic tumors” value is “inhibited”. Moreover, the “activity in orthotopic glioma model” value in the data set with human tumor xenografts (orthotopic glioma model in nude mice) was “active”. The “growth factor (platelet-derived)-induced stimulation” value in data set [2] is listed as “markedly suppressed”.

Consider `CO[C@H]1C[C@@H]2CC[C@@H](C)[C@@](O)(O2)C(=O)C(=O)N2CCCC[C@H]2C(=O)O[C@H]([C@H](C)C[C@@H]2CC[C@@H](O)[C@H](OC)C2)CC(=O)[C@H](C)/C=C(\C)[C@@H](O)[C@@H](OC)C(=O)[C@H](C)C[C@H](C)/C=C/C=C/C=C/1C` [rapamycin], for which the “phosphorylation of serine 389 of p70s6 kinase” value on mTOR is recorded as “completely blocks”.
